Test results: publication PMC3989234, “Introduction of Aromatic Ring-Containing Substituents in Cyclic Nucleotides Is Associated with Inhibition of Toxin Uptake by the Hepatocyte Transporters OATP 1B1 and 1B3” (PLoS ONE, 2014)
Where two headings read alike, the source gives them in different places.

Legend:
OATP1B1 [1] = target: T1, OATP1B1 (Homo sapiens, UniProt Q9Y6L6)
T1 sequence (Q9Y6L6 1-691): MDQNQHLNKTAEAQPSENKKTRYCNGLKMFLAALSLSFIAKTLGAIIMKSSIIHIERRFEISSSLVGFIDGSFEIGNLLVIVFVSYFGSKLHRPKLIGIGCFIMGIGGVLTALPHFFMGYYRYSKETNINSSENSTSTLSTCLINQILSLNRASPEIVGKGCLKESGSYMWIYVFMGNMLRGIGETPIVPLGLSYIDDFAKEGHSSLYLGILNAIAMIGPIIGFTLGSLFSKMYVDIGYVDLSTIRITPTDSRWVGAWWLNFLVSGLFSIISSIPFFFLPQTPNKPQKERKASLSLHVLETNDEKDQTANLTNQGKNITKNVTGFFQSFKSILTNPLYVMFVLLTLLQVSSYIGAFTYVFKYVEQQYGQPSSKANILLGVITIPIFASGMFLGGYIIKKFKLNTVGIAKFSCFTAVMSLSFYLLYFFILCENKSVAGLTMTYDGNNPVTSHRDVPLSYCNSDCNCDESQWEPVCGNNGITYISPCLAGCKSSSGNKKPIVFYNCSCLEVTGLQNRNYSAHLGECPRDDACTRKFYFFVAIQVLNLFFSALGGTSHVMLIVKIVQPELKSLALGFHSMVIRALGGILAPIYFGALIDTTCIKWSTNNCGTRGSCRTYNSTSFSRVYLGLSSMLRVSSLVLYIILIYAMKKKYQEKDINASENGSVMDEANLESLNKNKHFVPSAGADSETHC

OATP1B1 [2] = target: T1, OATP1B1; assay: Sodium fluorescein accumulation in OATP1B1-transfected HEK293T cells; details: read-out: Ki for inhibition of sodium fluorescein accumulation, OATP1B1; competitive; inhibitor 10 min before, 3 min co-incubation; ± s.e. of the estimate; R2 0.79
Description: (§1) Estimation of sodium fluorescein accumulation in OATP1B1/1B3 transfected cells was as described by [33], except that the cells were seeded in 24-well tissue culture plates at a density of 200 000 cells/well. Inhibitors were added 10 min prior to addition of sodium fluorescein, and the cells were then co-incubated with inhibitor and substrate for three min before removal of medium and washing.
(§2) The data for uptake of fluorescein into HEK293T cells transfected with OATP1B1 or OATP1B3 in the absence or presence of inhibitor were fitted in SigmaPlot, using Michaelis Menten kinetics with competitive inhibition. Vmax and Km values obtained in absence of inhibitor were used to fit the Ki value for uptake in the presence of inhibitor.

OATP1B3 [3] = target: T2, OATP1B3 (Homo sapiens, UniProt Q9NPD5); details: read-out: Ki for inhibition of sodium fluorescein accumulation, OATP1B3; competitive; inhibitor 10 min before, 3 min co-incubation; ± s.e. of the estimate; R2 0.91
T2 sequence (Q9NPD5 whole entry): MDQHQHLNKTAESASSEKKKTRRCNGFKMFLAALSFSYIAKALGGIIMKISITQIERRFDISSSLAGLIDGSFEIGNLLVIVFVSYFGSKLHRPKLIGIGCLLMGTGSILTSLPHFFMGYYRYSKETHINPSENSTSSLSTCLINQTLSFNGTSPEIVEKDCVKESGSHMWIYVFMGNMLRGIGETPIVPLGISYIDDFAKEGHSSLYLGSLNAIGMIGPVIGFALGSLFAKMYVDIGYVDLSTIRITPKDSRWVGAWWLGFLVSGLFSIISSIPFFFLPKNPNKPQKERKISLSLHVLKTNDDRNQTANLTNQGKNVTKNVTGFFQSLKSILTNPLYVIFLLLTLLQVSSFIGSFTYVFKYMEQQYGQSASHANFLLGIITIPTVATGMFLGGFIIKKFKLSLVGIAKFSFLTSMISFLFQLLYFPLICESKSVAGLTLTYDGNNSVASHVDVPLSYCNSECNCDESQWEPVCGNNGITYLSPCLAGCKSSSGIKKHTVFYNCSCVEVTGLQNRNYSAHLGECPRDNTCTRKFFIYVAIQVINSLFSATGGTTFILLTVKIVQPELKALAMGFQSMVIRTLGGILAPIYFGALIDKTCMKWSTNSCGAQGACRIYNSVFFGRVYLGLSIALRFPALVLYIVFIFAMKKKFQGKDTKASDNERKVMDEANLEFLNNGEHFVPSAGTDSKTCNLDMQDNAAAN
Description: as §1, §2

OATP1B3 [4] = target: T2, OATP1B3
primary rat hepatocytes [5] = details: 50 µM
primary rat hepatocytes [6] = test system: primary rat hepatocytes
primary rat hepatocytes [7] = test system: primary rat hepatocytes; remark: listed apart in the source
OATP1B3 [8] = target: T2, OATP1B3; assay: in vitro
Description: as §1, §2

OATP1B3 [9] = target: T2, OATP1B3; details: cited from earlier work
OATP1B1 [10] = target: T1, OATP1B1; details: cited from earlier work
[11] = substrate: O=C1OC2(c3ccc(O)cc3Oc3cc(O)ccc32)c2ccccc21; assay: cells, lysate or membranes; details: other: ± s.e. of the estimate
Description: as §1, §2

CO[C@@H]1[C@@H]2OP(=O)(O)OC[C@H]2O[C@H]1n1c(Sc2ccc(Cl)cc2)nc2c(N)ncnc21 [8-pCPT-2′-O-Me-cAMP, 8-(4-Chlorophenylthio)-2′-O-methyladenosine-3′, 5′-cyclic monophosphate]
Effect on Nod-induced apoptosis / Nod transport, OATP1B1-transfected HEK293T cells (OATP1B1 [1]): abolished | IC50 (OATP1B1 [1]): 46.4 µM | Ki (OATP1B1 [1]): 15.5 µM | Ki (OATP1B1 [2]): 46 ± 21 µM | Ki (OATP1B3 [3]): 75 ± 22 µM | Effect on Nod-induced apoptosis / Nod transport, OATP1B3-transfected HEK293T cells (OATP1B3 [4]): abolished | IC50 (OATP1B3 [4]): 12.6 µM | Ki (OATP1B3 [4]): 3.38 µM | Effect on [14C]-glycocholic acid accumulation in hepatocytes (primary rat hepatocytes [5]): almost completely inhibited | Effect on Nod-induced hepatocyte apoptosis (Fig. 1A) (primary rat hepatocytes [6]): inhibited completely apoptotic morphology | Effect on Nod-induced hepatocyte apoptosis (Fig. 2A) (primary rat hepatocytes [6]): clear inhibition | Effect on [3H]-Nod accumulation in hepatocytes (primary rat hepatocytes [7]): almost completely inhibited

O=C1OC2(c3ccc(O)cc3Oc3cc(O)ccc32)c2ccccc21 [fluorescein, sodium fluorescein]
Km (OATP1B3 [8]): 285 ± 134 µM

Nostocyclopeptide-M1
Potency as OATP1B3 inhibitor compared with the cAMP analogs (OATP1B3 [9]): more potent inhibitor | Potency as OATP1B1 inhibitor compared with the cAMP analogs (OATP1B1 [10]): more potent inhibitor

B1: OATP1B1 (Homo sapiens) (protein)
chain: T1 sequence (Q9Y6L6 1-691)
Km [11]: 402 ± 140 µM
